Legend:
[1] = test system: Streptococcus Pneumonia (#10341); experiment: Bacterial viability by bioluminescent ATP assay
[2] = test system: Streptococcus Pyogenes (Lancefield group A, #10096); experiment: Bacterial viability by bioluminescent ATP assay

| Compound | IC50 [1] [%] | reduces viability by ([1]; 5% DMSO) | IC50 [2] | Viability of S. pyogenes ([2]; DMSO Concentration 0.31) [%] | Viability of S. pyogenes ([2]; DMSO Concentration 0.63) [%] | Viability of S. pyogenes ([2]; DMSO Concentration 1.25) [%] | Viability of S. pyogenes ([2]; DMSO Concentration 2.50) [%] | S. pyogenes viability ([2]; DMSO […], MSM 0%) [%] | S. pneumonia viability (%) ([1]; 25 μg/L penicillin alone) | reduced viability by ([1]; 25 μg/L penicillin alone) | S. pneumonia viability (%) ([1]; 50 μg/L Penicillin alone) | S. pneumonia viability (%) ([1]; 100 μg/L Penicillin alone) | S. pneumonia viability ([1]; Penicillin 100 μg/L, MSM 0%) [%] |
| --- | --- | --- | --- | --- | --- | --- | --- | --- | --- | --- | --- | --- | --- |
| C[S+](C)[O-] [DMSO, Dimethyl sulfoxide] | 12.86 | approximately 25% | 9.07% | 100 | 100 | 100 | 100 | 100 |  |  |  |  |  |
| Penicillin |  |  | 15.25 µg/L |  |  |  |  |  | 79.82 | approximately 21% | 42.70 | 40.93 | 40.93 |

From patent US20110105623A1 (Biogenic Innovations, LLC, priority 2009, published 2011)
